Results published in the CheMixHub drug solubility set.

Assay: xn = mol fraction of the nth substance listed, in the solute-free solvent

Cc1ccc2cc(Br)ccc2n1 + CC(C)O + O
solubility (g/100 g solution)
Settings	278.15 K	283.15 K	288.15 K	293.15 K	298.15 K	303.15 K	308.15 K	313.15 K	318.15 K	323.15 K
x2 = 0.03225	0.0479	0.0553	0.0644	0.0741	0.0853	0.0974	0.113	0.129	0.148	0.169
x2 = 0.06974	0.141	0.161	0.185	0.211	0.241	0.273	0.312	0.356	0.403	0.457
x2 = 0.1139	0.263	0.301	0.346	0.393	0.446	0.505	0.576	0.655	0.74	0.837
x2 = 0.1666	0.372	0.427	0.492	0.56	0.637	0.723	0.826	0.94	1.06	1.2
x2 = 0.2307	0.427	0.503	0.586	0.671	0.769	0.881	0.997	1.15	1.31	1.5
x2 = 0.3103	0.482	0.567	0.673	0.787	0.904	1.04	1.19	1.37	1.57	1.79
x2 = 0.4117	0.539	0.642	0.767	0.896	1.04	1.2	1.39	1.59	1.81	2.06
x2 = 0.5454	0.596	0.7	0.856	1.03	1.2	1.4	1.63	1.89	2.17	2.48
x2 = 0.7297	0.657	0.815	0.972	1.16	1.33	1.56	1.81	2.1	2.4	2.78
